Laboratory results: paper PMC11012124, “Synthesis of Novel Triazine-Based Chalcones and 8,9-dihydro-7H-pyrimido[4,5-b][1,4]diazepines as Potential Leads in the Search of Anticancer, Antibacterial and Antifungal Agents” (International Journal of Molecular Sciences, 2024)

Columns and labels:
Assay in all cases: cells
[1] = test system: CCRF-CEM; conditions: Homo sapiens, 48 h
[2] = test system: HL-60(TB); conditions: Homo sapiens, HL-60, 48 h
[3] = test system: K-562; conditions: Homo sapiens, K562, 48 h
[4] = test system: SR; conditions: Homo sapiens, 48 h
[5] = test system: HOP-92; conditions: Homo sapiens, HOP-92, 48 h
[6] = test system: NCI-H226; conditions: Homo sapiens, NCI-H226, 48 h
[7] = test system: NCI-H23; conditions: Homo sapiens, NCI-H23, 48 h
[8] = test system: NCI-H460; conditions: Homo sapiens, NCI-H460, 48 h
[9] = test system: SF-268; conditions: Homo sapiens, SF-268, 48 h
[10] = test system: SF-295; conditions: Homo sapiens, SF-295, 48 h
[11] = test system: LOX IMVI; conditions: Homo sapiens, 48 h
[12] = test system: MDA-MB-435; conditions: Homo sapiens, MDA-MB-435, 48 h
[13] = test system: SK-MEL-2; conditions: Homo sapiens, SK-MEL-2, 48 h
[14] = test system: SK-MEL-5; conditions: Homo sapiens, SK-MEL-5, 48 h
[15] = test system: UACC-257; conditions: Homo sapiens, UACC-257, 48 h
[16] = test system: IGROV1; conditions: Homo sapiens, IGROV-1, 48 h
[17] = test system: OVCAR-3; conditions: Homo sapiens, OVCAR-3, 48 h
[18] = test system: OVCAR-4; conditions: Homo sapiens, OVCAR-4, 48 h
[19] = test system: OVCAR-5; conditions: Homo sapiens, OVCAR-5, 48 h
[20] = test system: 786-0; conditions: Homo sapiens, 786-0, 48 h
[21] = test system: A498; conditions: Homo sapiens, A498, 48 h
[22] = test system: SN12C; conditions: Homo sapiens, 48 h
[23] = test system: TK-10; conditions: Homo sapiens, TK-10, 48 h
[24] = test system: MCF7; conditions: Homo sapiens, MCF7, 48 h

COc1cc(/C=C/C(=O)c2ccc(S(=O)(=O)NCCNc3nc(N(C)C)nc(N4CCOCC4)n3)cc2)cc(OC)c1OC [23d]
GI50 [1]: 2070 nM
CC50 ([1]; read-out: LC50): > 100 µM
GI50 [2]: 1970 nM
CC50 ([2]; read-out: LC50): > 100 µM
GI50 ([3]; K-562, 48 h): 1460 nM
CC50 ([3]; read-out: LC50): > 100 µM
GI50 [4]: 1880 nM
CC50 ([4]; read-out: LC50): > 100 µM
GI50 [5]: 7.27 µM
CC50 ([5]; read-out: LC50): 76 µM
GI50 [6]: 11.4 µM
CC50 ([6]; read-out: LC50): 72.4 µM
GI50 [7]: 3.09 µM
CC50 ([7]; read-out: LC50): 40.3 µM
GI50 [8]: 3.17 µM
CC50 ([8]; read-out: LC50): 59 µM
GI50 [9]: 3.16 µM
CC50 ([9]; read-out: LC50): 77.2 µM
GI50 [10]: 3.04 µM
CC50 ([10]; read-out: LC50): 57.8 µM
GI50 [11]: 1640 nM
CC50 ([11]; read-out: LC50, LOX IMVI, 48 h): 5.76 µM
GI50 [12]: 1900 nM
CC50 ([12]; read-out: LC50): 8.46 µM
GI50 [13]: 10.7 µM
CC50 ([13]; read-out: LC50): 48.9 µM
GI50 [14]: 7.9 µM
CC50 ([14]; read-out: LC50): 46.6 µM
GI50 [15]: 5.86 µM
CC50 ([15]; read-out: LC50): 43 µM
GI50 [16]: 2600 nM
CC50 ([16]; read-out: LC50): 50.1 µM
GI50 [17]: 2020 nM
CC50 ([17]; read-out: LC50): 8.84 µM
GI50 [18]: 2210 nM
CC50 ([18]; read-out: LC50): 24.8 µM
GI50 [19]: 2830 nM
CC50 ([19]; read-out: LC50): 33.7 µM
GI50 [20]: 1890 nM
CC50 ([20]; read-out: LC50): 7.18 µM
GI50 [21]: 14.2 µM
CC50 ([21]; read-out: LC50): 52.6 µM
GI50 [22]: 2720 nM
CC50 ([22]; read-out: LC50): 38.1 µM
GI50 [23]: 13.1 µM
CC50 ([23]; read-out: LC50): 50.8 µM
GI50 [24]: 1640 nM
CC50 ([24]; read-out: LC50): 9.66 µM
